From patent US20150285818A1, “Switchable Reporter Enzymes for Homogenous Antibody Detection” (TECHNISCHE UNIVERSITEIT EINDHOVEN, priority 2012, published 2015)
“And” between values parts separate entries of the source, which are not always exact repeats. Identical values can stand only once. Like-named read-outs stand apart in the source and are kept apart here. Fluorescein = fluorescein label attached to a cysteine side chain

Columns and labels:
anti-HIV1-p17 antibody = experiment: Peptide binding assay using fluorescence polarization, anti-HIV1-p17
anti-HA antibody = experiment: Peptide binding assay using fluorescence polarization, anti-HA
anti-Dengue-1 antibody = experiment: Peptide binding assay using fluorescence polarization, anti-Dengue-1; conditions: read-out: Kd, fluorescence polarization titration (Eq. 8); 10 nM fluorescein-labeled peptide titrated with antibody
[1] = read-out: Kd, fluorescence polarization titration (Eq. 8), 10 nM fluorescein-labeled short epitope peptide titrated with antibody

## WEKIRLR
anti-HIV1-p17 antibody; [1]
  Kd: ~3000 nM and 3300 nM

## YPYDVPDYA
anti-HA antibody; read-out: Kd (Kd1) of non-labeled peptide, competition assay (Eqs. 9 and 10), antibody and fluorescein-labeled peptide 10 nM each, titrated with non-labeled peptide
  Kd: 4.5 nM and ~5 nM

## EHKYSWKS-GGG-C(Fluorescein)
anti-Dengue-1 antibody
  Kd: 70 ± 13 nM

## WEKIRLR-GGG-C(Fluorescein) (Ac-WEKIRLRGGGC(Fluorescein)-NH2)
anti-HIV1-p17 antibody; [1]
  Kd: 3300 ± 200 nM

## EHKYSWKS
anti-Dengue-1 antibody
  Kd: 70 nM

## YPYDVPDYA-GGG-C(Fluorescein)
anti-HA antibody; read-out: Kd, fluorescence polarization titration (Eq. 8), 2 nM fluorescein-labeled peptide titrated with antibody
  Kd: 0.58 ± 0.22 nM

## ELDRWEKIRLRP-GGG-C(Fluorescein)
anti-HIV1-p17 antibody; read-out: Kd, fluorescence polarization titration (Eq. 8), 10 nM fluorescein-labeled peptide titrated with antibody
  Kd: 24 ± 3 nM

## ELDRWEKIRLRP
anti-HIV1-p17 antibody; read-out: Kd (Kd1) of non-labeled peptide, competition assay (Eqs. 9 and 10), antibody and fluorescein-labeled peptide 100 nM each, titrated with non-labeled peptide
  Kd: 42 ± 1 nM
